The results in this text go back to ChEMBL document CHEMBL1148710, “Alpha2-adrenoreceptors profile modulation. 3.1 (R)-(+)-m-nitrobiphenyline, a new efficient and alpha2C-subtype selective agonist” (J Med Chem, 2007).

The structures appear in SMILES notation. The source made the active and inactive calls. The calls are words filed in the database; no cut-off is given here.

The target in experiment [1] is T1, Alpha-2A adrenergic receptor (Homo sapiens) (UniProt P08913).
T1 sequence (whole entry): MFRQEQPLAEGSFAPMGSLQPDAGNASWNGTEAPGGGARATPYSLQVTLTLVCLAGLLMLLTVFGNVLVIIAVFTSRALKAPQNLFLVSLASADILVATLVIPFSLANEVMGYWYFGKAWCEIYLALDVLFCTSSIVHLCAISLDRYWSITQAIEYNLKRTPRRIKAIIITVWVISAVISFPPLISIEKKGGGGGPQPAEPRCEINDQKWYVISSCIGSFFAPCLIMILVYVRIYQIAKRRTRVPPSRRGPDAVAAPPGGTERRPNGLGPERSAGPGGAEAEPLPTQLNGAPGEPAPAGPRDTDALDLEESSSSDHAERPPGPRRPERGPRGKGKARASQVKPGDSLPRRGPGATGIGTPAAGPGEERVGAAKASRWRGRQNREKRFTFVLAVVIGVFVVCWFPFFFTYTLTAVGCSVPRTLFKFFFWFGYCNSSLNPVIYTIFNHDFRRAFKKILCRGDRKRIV
The experiment in a line: Intrinsic activity at human adrenergic alpha-2A receptor expressed in CHO cells assessed as forskolin-induced cAMP accumulation relative to (-)-noradrenaline. Type of experiment: functional, cell-based.

For experiment [2], the target named is T2, Alpha-2C adrenergic receptor (Homo sapiens) (UniProt P18825).
T2 sequence (whole entry): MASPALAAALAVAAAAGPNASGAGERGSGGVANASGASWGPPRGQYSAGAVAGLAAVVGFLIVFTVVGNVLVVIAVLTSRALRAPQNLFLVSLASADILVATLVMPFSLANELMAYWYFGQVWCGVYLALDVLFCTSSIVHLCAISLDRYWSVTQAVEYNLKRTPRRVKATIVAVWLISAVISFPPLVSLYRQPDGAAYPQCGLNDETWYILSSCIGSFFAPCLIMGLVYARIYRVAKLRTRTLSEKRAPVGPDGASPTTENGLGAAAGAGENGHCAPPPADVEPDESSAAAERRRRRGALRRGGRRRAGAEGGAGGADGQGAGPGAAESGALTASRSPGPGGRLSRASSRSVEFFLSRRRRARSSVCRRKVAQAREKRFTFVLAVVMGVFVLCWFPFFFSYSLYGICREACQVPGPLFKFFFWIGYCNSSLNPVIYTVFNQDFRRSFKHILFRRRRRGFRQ
The experiment in a line: Intrinsic activity at human adrenergic Alpha-2C receptor expressed in CHO cells assessed as forskolin-induced cAMP accumulation relative to (-)- noradrenaline. Type of experiment: functional, cell-based.

Experiment [3] deals with T3, Alpha-2B adrenergic receptor (Homo sapiens) (UniProt P18089).
T3 sequence (whole entry): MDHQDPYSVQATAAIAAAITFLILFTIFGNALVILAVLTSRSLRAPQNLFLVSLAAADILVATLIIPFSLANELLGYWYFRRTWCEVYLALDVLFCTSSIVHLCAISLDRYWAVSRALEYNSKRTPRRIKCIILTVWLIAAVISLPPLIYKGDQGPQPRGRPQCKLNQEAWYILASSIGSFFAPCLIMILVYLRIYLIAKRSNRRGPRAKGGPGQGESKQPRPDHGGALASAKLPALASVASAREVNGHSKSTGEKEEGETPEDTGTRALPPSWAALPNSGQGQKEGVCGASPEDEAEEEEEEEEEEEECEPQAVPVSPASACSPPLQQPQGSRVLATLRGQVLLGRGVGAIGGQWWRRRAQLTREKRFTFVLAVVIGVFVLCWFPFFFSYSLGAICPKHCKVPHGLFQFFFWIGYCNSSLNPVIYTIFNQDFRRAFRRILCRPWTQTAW
As to the kind of experiment: Intrinsic activity at human adrenergic alpha2B receptor expressed in CHO cells assessed as forskolin-induced cAMP accumulation relative to (-)- noradrenaline. The experiment is classed as functional, cell-based.

The target of experiment [4] is T4, Alpha-2C adrenergic receptor (Homo sapiens, UniProt P18825).
T4 sequence (P18825 whole entry): T2 sequence (whole entry)
As to the kind of experiment: biochemical.
Description: (§2) Displacement of [3H]RX 821002 from human adrenergic Alpha-2C receptor expressed in CHO cells

Experiment [5] addresses T5, Alpha-2A adrenergic receptor (Homo sapiens, UniProt P08913).
T5 sequence (P08913 whole entry): T1 sequence (whole entry)
The experiment in a line: Displacement of [3H]RX 821002 from human adrenergic alpha2A receptor expressed in CHO cells. The experiment is classed as cell-based.

The target in experiment [6] is T6, Alpha-2B adrenergic receptor (Homo sapiens, UniProt P18089).
T6 sequence (P18089 whole entry): T3 sequence (whole entry)
The experiment in a line: Displacement of [3H]RX 821002 from human adrenergic alpha-2B receptor expressed in CHO cells. The experiment is classed as cell-based.

The target of experiment [7] is T4, Alpha-2C adrenergic receptor. The experiment in a line: Displacement of [3H]RX 821002 from human adrenergic alpha-2c receptor expressed in CHO cells in presence of GppNHp/Na. Type of experiment: cell-based.
The target is the same in experiment [8]. As to the kind of experiment: Agonistic potency at human adrenergic Alpha-2C receptor expressed in CHO cells assessed as forskolin-induced cAMP accumulation. Type of experiment: functional, cell-based.
The target of experiment [9] is T3, Alpha-2B adrenergic receptor (Homo sapiens). As to the kind of experiment: Antagonistic potency at human adrenergic alpha-2B receptor expressed in CHO cells assessed as forskolin-induced cAMP accumulation. The experiment is classed as functional, cell-based.
Experiment [10] concerns the target T2, Alpha-2C adrenergic receptor (Homo sapiens). Particulars: CHO.
Description: as §2
Experiment [11] addresses T1, Alpha-2A adrenergic receptor (Homo sapiens). Particulars: CHO.
Description: Antagonistic potency at human adrenergic alpha2A receptor expressed in CHO cells assessed as forskolin-induced cAMP accumulation
In experiment [12] the target is T3, Alpha-2B adrenergic receptor (Homo sapiens). The experiment in a line: (§1) Agonistic potency at human adrenergic alpha-2B receptor expressed in CHO cells assessed as forskolin-induced cAMP accumulation. Type of experiment: functional, cell-based.
Experiment [13] has as its target T5, Alpha-2A adrenergic receptor. As to the kind of experiment: Agonistic potency at human adrenergic alpha-2A receptor expressed in CHO cells assessed as forskolin-induced cAMP accumulation.
The target of experiment [14] is T6, Alpha-2B adrenergic receptor. The experiment is described as §1. The experiment is classed as functional, cell-based.

`CC(Oc1ccccc1-c1cccnc1)C1=NCCN1` (racemic): the values for the Intrinsic activity in [1], in [2] and in [3] were 0.5, 1 and 0.5, respectively.

`C[C@@H](Oc1ccccc1-c1cccc([N+](=O)[O-])c1)C1=NCCN1`: the Ki in [4] is 257 nM; in experiment [5] it was 81.3 nM; in [6], 741 nM; in experiment [7] it was 363 nM. Also, the EC50 in experiment [8] (read-out: EC50) was 38 nM; in [8] (read-out: Log EC50 (converted)), 10 nM. In [2], the Intrinsic activity came out at 0.8. In addition, the results for the pKb in experiment [9] and in experiment [11] were 6.07 and 7.11, respectively. Further, in experiment [10], the pKiH was determined as 8.21. This molecule returned a pKiL in [10] of 6.42.

For the molecule `CC(Oc1ccccc1-c1cccc(O)c1)C1=NCCN1` (racemic), the Intrinsic activity was < 0.3 in [1], 1.15 in [2] and 0.5 in experiment [3].

In the case of `CC(Oc1ccccc1-c1ccccc1)C1=NCCN1` (racemic), the Intrinsic activity is 0.7 in experiment [1], 0.8 in experiment [2] and 0.5 in experiment [3].

For `C[C@H](Oc1ccccc1-c1cccc([N+](=O)[O-])c1)C1=NCCN1`, the Ki in experiment [4] is 537 nM; in [5] it was 72.4 nM; in [6] it was 1580 nM. Further, in experiment [8] (read-out: Log EC50 (converted)), the EC50 is 741 nM. Further, in experiment [2], the Intrinsic activity worked out at 0.45. The values for the pKb in experiment [9] and in [11] were 5.93 and 7.35, respectively.

Consider `CC(Oc1ccccc1-c1cccc([N+](=O)[O-])c1)C1=NCCN1` (racemic), for which the Intrinsic activity in [1] is < 0.3; in experiment [2] it was 0.6; in experiment [3] it was < 0.3. The result in experiment [12] was inactive.

Take `CC(Oc1ccccc1-c1cccc(F)c1)C1=NCCN1` (racemic): the Intrinsic activity in experiment [1] was 0.58; in experiment [2], 1.15; in [3] it was < 0.3. For the same molecule, the result in experiment [12] was inactive.

For `C[C@H](Oc1ccccc1-c1ccccc1)C1=NCCN1`, the Intrinsic activity amounted to 0.8 in [1], 0.9 in [2] and 0.65 in [3]. In addition, the Ki in experiment [4] was 302 nM; in experiment [5], 91.2 nM; in experiment [6], 589 nM. Besides, the EC50 in [13] is 74.1 nM; in experiment [14], 692 nM; in experiment [8] (read-out: Log EC50 (converted)) it was 18.6 nM.

For the molecule `C[C@@H](Oc1ccccc1-c1ccccc1)C1=NCCN1`, the Intrinsic activity in experiment [1] came out at 0.4; in experiment [2] it was 0.7; in [3] it was 0.4. Moreover, the Ki was 977 nM in [4], 186 nM in [5] and 1260 nM in experiment [6]. Besides, the EC50 was 28800 nM in [13], 100000 nM in experiment [14] and 112 nM in [8] (read-out: Log EC50 (converted)).

As for `Cc1cccc(C(C)c2c[nH]cn2)c1C` (single isomer, unassigned) [DEXMEDETOMIDINE], in experiment [7], the Ki was 30.9 nM. Further, in [10], the pKiH was found to be 10 and the pKiL came to 8.26.
